Measurements as given in patent US20030220363A1, “Use of propionyl L-carnitine for the preparation of a medicament capable of inducing apoptosis” (SIGMA-TAU INDUSTRIE FARMACEUTICHE RIUNITE S.p.A., priority 1998, published 2003).
Marks after values point to notes of the source that are not given here.

Assays:
[1] = tested on: smooth muscle cells of rat aorta; experiment: In vivo proliferation of smooth muscle cells of rat aorta after mechanical de-endothelialization (anti-BrDU positive nuclei); design: species or system Wistar rat; details: for +Nuclei/total nuclei % (anti-bromodeoxyuridine positive): 15 days after de-endothelialization, PLC 120 mg/Kg or Enalapril 1 mg/Kg p.c. die, ± s.e.m., preliminary results
Protocol: (§1) Wistar male rats, weighing between […], were used for the experiments. The rats were anaesthetised with Nembutal i.p. (35 mg/kg body weight) and the thoracic portion of aorta was submitted to endothelium mechanical removal with Fogarty 2F balloon probe (Baxter USA), according to the Baugartner and Studer method(1966) with minor modification (Orlandi 1994).
(§2) Two groups were subjected to pharmacological treatment with propionyl L-carnitine (PLC, 120 mg/Kg p.c. die), one group was treated with an ACE-inhibitor (Enalapril, 1 mg/Kg p.c. die); the two remaining groups were the control. Moreover, some non-balloonized animals were used as blanks.
The animals were sacrificed 3 and 15 days after de-endothelialization. Two hours before sacrifice, all the rats received i.v. a Bromodeoxyuridine solution (BrDU) (45 mg/kg body weight) in order to verify cell proliferation. One hour before sacrifice, some randomly selected animals received 1 ml Blue Evans (1% in 0.9% NaCl solution) in order to evaluate the degree of aorta disruption.
At sacrifice, the animals were anaesthetised with i.p. Nembutal and perfused, after washing with isotonic saline containing 3% Dextran 70, with buffered formalin for 20 minutes. Aortae were isolated, slightly washed in saline and dissected longitudinally. Carotid, heart and small intestine were also excised. All the organs were post-fixed in the same fixative for 24 hours at room temperature.
In order to put in evidence proliferating cells in damaged arteries, serial sections in paraffin of aortae were deparaffined, rehydrated, immersed in a 3% H2O2 solution for 20 minutes and incubated with trypsine (0.05 M in Tris-HCl, pH 7.6) at 37° C. After that, sections were treated with 2N HCl at 37° C. for 30 minutes, washed with 0.1 M sodium tetraborate for 10 minutes, incubated with normal horse serum (Vector) and subsequently with and-BrDU monoclonal antibody (Ylem) for 1 hour. The preparates were then reacted with biotilinated anti-mouse IgG (Vector) and the Streptoavidine-ABC-POD complex (Ylem).
The reaction was evidenced by using diaminobenzidine (DAB) as final chromogen. The count of positive nuclei for BrDU was made on the total number of nuclei. Such count was blind-made by two researchers separately. The difference between the two counts was always lower than 0.5%.
All data were analysed with the T Student's test. The differences between the groups were considered to be significant for P<0.05.

rat aorta intima = experiment: Morphometric analysis of intima thickening after mechanical de-endothelialization; format: in vivo, Wistar rat; details: 15 days after de-endothelialization, PLC 120 mg/Kg or Enalapril 1 mg/Kg p.c. die; for Intima volume/wall (percentage ratio between intima volume and aorta wall volume): ± s.e.m., preliminary results
Protocol: as §1, §2
The entity of intima thickening after 15 days was evaluated on Verhoeff-Van Gieson stained sections, using a grid overlapped on the image, consisting of 400 points, 1 cm from each other.
The analysis was made on hystological preparates through a Hamamatsu C3077 camera controlled by a Hamamatsu DVS 3000 image analyser and connected to a Polyvar-Reichert microscope. Morphometric evaluation was made at X116 magnification. The following parameters were evaluated a) relative volume of intima referred to arterial wall; b) relative volume of tunica media referred to arterial wall, by counting the overlapping points on the intima and mean tunica.
3-12 aorta sections were used at different level for each animal. This number was a function of the structure sizes, according to Sach's formula, showing the number of fields necessary to obtain a statistically significant sample.

[2] = tested on: smooth muscular cells (SMC) isolated from aortae of spontaneously hypertensive rats (SHR); experiment: Apoptotic cell count after Hoechst 33258 staining, SHR SMC; format: cell-based, rat
Protocol: (§3) In vitro experiments were carried out to evaluate the effect of propionyl L-carnitine (PLC) on smooth muscular cells (SMC) isolated from aortae of spontaneously hypertensive rats (SHR) and, as control, on SMC isolated from normotensive rats (WKY).
(§4) As a further characterisation of smooth muscular cells in the presence of PLC, the percentage of apoptotic cells was measured both in basal conditions and in oxidative stress conditions. Apoptosis evaluation was carried out by counting the number of apoptotic cells present on a total of 1000 cells, after specific DNA staining with Hoechst 33258.

[3] = tested on: HeLa, uterine cervix tumor; experiment: Inhibition of proliferation of neoplastic cells (Trypan Blue count), HeLa; format: cell-based, human; design: inhibition of proliferation after removal of PLC: dose or concentration left out as unconfirmed
Protocol: (§5) Human derived neoplastic cell, obtained from Istituto Zooprofilattico of Brescia, were cultivated. The cells used for the experiment were: U266, multiple myleopma, HeLa, uterine cervix tumor, K562, chronic myeloid leukemia cells. HeLa and K562 were cultivated in RPMI+10% FCS, while those of U266 line were cultivated in RPMI+15% FCS, both media containing Penicilline/Streptomycine (50 U/mL and 50 μg/mL). Cells were plated in 6-wells plates (Falcon). Analysis were performed in cells having 50% confluence.
(§6) Each cell line was treated with PCL according to the folowing schemes:
(§7) a) 1 mM PLC for 24 hours (FIGS. 1-3); 1 mM PLC for 48 hours (FIGS. 1-3);
[…] 4-6).
(§8) At the end of each treatment, cells were counted in Burker chamber in the presence of Trypan Blue 0.5%, diluted 1:2. Count was made for each experimental group on samples coming from three wells.

[4] = tested on: SMC isolated from normotensive rats (WKY); experiment: Apoptotic cell count after Hoechst 33258 staining, WKY SMC; format: cell-based, rat
Protocol: as §3, §4
In WKY cultures, apoptosis percentage is negligible (tab. 6)

[5] = tested on: smooth muscular cells (SMC) isolated from aortae of spontaneously hypertensive rats (SHR); experiment: Cell growth (cell number/ml) of cultured aortic SMC from SHR; format: cell-based, rat
Protocol: as §3
(§9) These in vitro studies evidenced that PLC, when administered during culture exponential growth phase, reduces cell growth, evaluated as cell number/ml, as well as DNA synthesis, evaluated through incorporation of trititated thymidine (Tab. 4 and 5).

[6] = tested on: SMC isolated from normotensive rats (WKY); experiment: DNA synthesis by tritiated thymidine incorporation, WKY SMC; format: cell-based, rat; details: culture day 6
Protocol: as §3, §9

[7] = tested on: SMC isolated from normotensive rats (WKY); experiment: Cell growth (cell number/ml) of cultured aortic SMC from WKY; format: cell-based, rat
Protocol: as §3, §9

[8] = tested on: smooth muscular cells (SMC) isolated from aortae of spontaneously hypertensive rats (SHR); experiment: DNA synthesis by tritiated thymidine incorporation, SHR SMC; format: cell-based, rat; details: culture day 6
Protocol: as §3, §9

U266, multiple myleopma = experiment: Inhibition of proliferation of neoplastic cells (Trypan Blue count), U266; format: cell-based, human
Protocol: as §5, §6, §7
[…] 4-6).
as §8

[9] = tested on: K562, chronic myeloid leukemia cells; experiment: Inhibition of proliferation of neoplastic cells (Trypan Blue count), K562; format: cell-based, human
Protocol: as §5, §6, §7
[…] 4-6).
as §8

For `CCOC(=O)[C@H](CCc1ccccc1)N[C@@H](C)C(=O)N1CCC[C@H]1C(=O)O` [Enalapril], the “+Nuclei/total nuclei % (anti-bromodeoxyuridine positive)” value (from here on “+Nuclei/total nuclei %”) ([1]; intima tunica) was “No significant differences”, the “+Nuclei/total nuclei %” value ([1]; intima tunica, listed as enalapril) was 2.43 ± 0.39 (c) % and the “+Nuclei/total nuclei %” value ([1]; tunica media) was “No significant differences”. The “+Nuclei/total nuclei %” value ([1]; tunica media, listed as enalapril) was 0.27 ± 0.09%, the “Reduction (% to CTR) of intima relative volume” value (rat aorta intima) was 26.14% and the “Intima volume/wall (percentage ratio between intima volume and aorta wall volume)” value (rat aorta intima) was 21.96 ± 1.20 ^(e) %.
For `CCC(=O)O[C@H](CC(=O)[O-])C[N+](C)(C)C` [PLC, propionyl L-carnitine], the “Reduction % of BrDU-positive nuclei against control” value ([1]; tunica media, 3 days after de-endothelialization, PLC 120 mg/Kg p.c. die) was 59.3%, the “positive nuclei/total nuclei % (anti-bromodeoxyuridine positive)” value ([1]; tunica media, 3 days after de-endothelialization, PLC 120 mg/Kg p.c. die, ± s.e.m) was 2.59 ± 0.56% and the apoptotic cell percentage ([2]; basal conditions) was 2%. For the same compound, the apoptotic cell percentage ([2]; oxidative stress) was 10%, the “inhibition of proliferation with respect to the control” value (“inhibition … to the control” below) ([3]; 1 mM PLC for 24 hours) was 25% and the “inhibition … to the control” value ([3]; 1 mM PLC for 48 hours) was 17%. For the same compound, the “inhibition of proliferation after removal of PLC” value (“inhibition … of PLC” below) ([3]; 24 hours PLC, then fresh medium without the substance) was 20%, the apoptotic cell percentage ([4]; basal conditions) was 0% and the apoptotic cell percentage ([4]; oxidative stress) was 2%. The cell number/ml ([5]; culture day 2) was 7*10^4 ± 4 /ml, the cell number/ml ([5]; culture day 3) was 4*10^4 ± 2 /ml and the cell number/ml ([5]; culture day 4) was 7*10^4 ± 4 /ml. The cell number/ml ([5]; culture day 6) was 20*10^4 ± 5 /ml, the tritiated thymidine incorporation [6] was 2.56E−05 μCi/μgDNA and the cell number/ml ([7]; culture day 2) was 3*10^4 ± 2 /ml. The cell number/ml ([7]; culture day 3) was 4*10^4 ± 2 /ml, the cell number/ml ([7]; culture day 4) was 6*10^4 ± 2 /ml and the cell number/ml ([7]; culture day 6) was 8*10^4 ± 3 /ml. The tritiated thymidine incorporation [8] was 1.81E−05 μCi/μgDNA, the “Reduction (% to CTR) of intima relative volume” value (rat aorta intima) was 31.11% and the “Intima volume/wall (percentage ratio between intima volume and aorta wall volume)” value (rat aorta intima) was 20.48 ± 2.73 ^(d) %. The “inhibition … to the control” value (U266, multiple myleopma; U266, 1 mM PLC for 24 hours) was 46%, the “inhibition … to the control” value (U266, multiple myleopma; U266, 1 mM PLC for 48 hours) was 26% and the “inhibition … of PLC” value (U266, multiple myleopma; U266, 24 hours with 1 mM PLC, then fresh medium without the substance) was 26%. For the same compound, the “inhibition … to the control” value ([9]; K562, 1 mM PLC for 24 hours) was 37%, the “inhibition … to the control” value ([9]; K562, 1 mM PLC for 48 hours) was 39% and the “inhibition … of PLC” value ([9]; K562, 24 hours with 1 mM PLC, then fresh medium without the substance) was 21%.
